{"source": "patent US7390915B1", "about": "“Phosphine transition metal complex having ferrocene skeleton, process for making the same, and anti-cancer agent” (Nippon Chemical Industrial Co., Ltd, priority 2007, dated 2008)"}
{"system": "HL-60 (human acute myeloid leukemia cells)", "experiment": "Evaluation of anti-cancer activity: HL-60 cell survival by modified Mosmann (MTT) method", "assay_type": "cell-based", "settings": "read-out: IC50 (concentration of inhibitor that inhibits cell growth to 50%), HL-60 cells, 24 hours culture with compound, average of at least three experiments", "experimental": "<Evaluation of Anti-Cancer Activity>\nHL-60 (human acute myeloid leukemia cells) as the cancerous cells was cultured under a 5% CO2 atmosphere in a wet incubator at 37° C. in a Roswell Park Memorial Institute medium (RPMI 1640) supplemented with 10% fetal bovine serum and 1% antibiotic and antimycotic.\nThe cells were washed with PBS and counted. A 1×10^6 cells/mL suspension was then prepared using the same medium. The suspension was added to a sterilized 96-well microplate at a density of 50000 cells per well.\nThe number of survived cells was then evaluated by a modified Mosmann method (T. Mosmann, J. Immunol. Method (1983) 65, 55-63). That is, a solution of a tetrazolium salt (3,[4,5-dimethylthiazol-2-yl]-2,5-diphenyltetrazolium bromide (MTT)) was added, and the culture was continued for 3 hours under the same conditions. Formazan crystals generated by enzymatic activity of the mitochondria in the cells were dissolved in 0.04 mol HCl/isopropyl alcohol and the absorbance at 595 nm was measured using a microplate reader (Bio-Rad 550). In order to eliminate the background, the absorbance at 630 nm was measured and subtracted from the observed absorbance at 595 nm. […] Note that in calculating the IC50 value, the average of values of at least three experiments conducted under the same conditions was used.", "units": {"IC50": "µM"}}
{"substance": "bis(1,1′-bis-(diphenylphosphino)-2,2-bis-[(S)-4-sec-butyl-2-yl]ferrocene)digold(I)dichloride [Example 8]", "IC50": 3.54}
{"substance": "bis(1,1′-bis-(diphenylphosphino)-2,2-bis-[(S)-4-isopropyl-2-yl]ferrocene)digold(I)dichloride [Example 5]", "IC50": 0.803}
{"substance": "Bis((S)-1-((R)-2-(dicyclohexylphosphino)ferrocenyl)ethyldiphenylphosphine)gold(I)chloride [Example 4]", "IC50": 9.21}
{"substance": "bis(1,1′-bis-(diphenylphosphino)-2,2-bis-[(S)-4-isobutyl-2-yl]ferrocene)digold(I)dichloride [Example 7]", "IC50": 2.1}
{"substance": "Bis((R)-1-((S)-2-(diphenylphosphino)ferrocenyl)ethyldicyclohexylphosphine)gold(I)chloride [Example 2]", "IC50": 8.69}
{"substance": "bis(1,1′-bis-(diphenylphosphino)-2,2-bis-[(S)-4-tert-butyl-2-yl]ferrocene)digold(I)dichloride [Example 6]", "IC50": 2.31}
{"substance": "Bis((R)-1-((S)-2-(dicyclohexylphosphino)ferrocenyl)ethyldicyclohexylphosphine)gold(I)chloride [Example 1]", "IC50": 19.2}
{"substance": "Bis((R)-1-((S)-2-(dicyclohexylphosphino)ferrocenyl)ethyldiphenylphosphine)gold(I)chloride [Example 3]", "IC50": 7.92}
